This is an account of results in patent US7026328B2, “Heterocyclic compounds which inhibit leukocyte adhesion mediated by α4 integrins” (Elan Pharmaceuticals, Inc., priority 2002, dated 2006).

The structures appear in SMILES notation.

For one series, the target named is T1, α4β1 integrin (Homo sapiens, UniProt P05556+P13612).
T1 construct: Jurkat™ cells (maintained in log phase growth) were labeled with Calcein AM; endogenous in cells; host or cells: Jurkat cells
Description: α4β1 Integrin Adhesion Assay: Jurkat Cell Adhesion to Human Plasma Fibronectin. In kind it is cell-based. To be noted: Jurkat cells. As for the experimental part:
96 well plates (Costar 3590 EIA plates) were coated with human fibronectin (Gibco/BRL, cat #33016–023) at a concentration of 10 μg/mL overnight at 4° C. The plates were then blocked with a solution of bovine serum albumin (BSA; 0.3%) in saline. Jurkat™ cells (maintained in log phase growth) were labeled with Calcein AM according to the manufacturer's instructions, and suspended at a concentration of 2×10^6 cells/mL in Hepes/Saline/BSA. The cells were then exposed to test and control compounds for 30 minutes at room temperature before transfer to individual wells of the fibronectin coated plate. Adhesion was allowed to occur for 35 minutes at 37° C. The wells were then washed by gentle aspiration and pipetting with fresh saline. Fluorescence associated with the remaining adherent cells was quantified using a fluorescence plate reader at EX 485/EM 530.
Cell cultures were prepared by first splitting the stationary phase Jurkat™ cells at 1:10 on day one, and 1:2 on day two to perform assay on day 3. The cells split 1:10 on day one were split 1:4 on day 3 for a day 4 assay.
The assay plates were prepared by first making a working solution of Gibco/BRL Human Fibronectin (cat #33016-023) in PBS++, at 10 μg/mL. A Costar 3590 EIA plate was then coated with 50 μL/well for 2 hours at room temperature (thought it can also be left overnight at 4° C.). Finally the plate was asperated and blocked with Hepes/Saline Buffer, 100 μL/well, for 1 hour at RT followed by washing 3× with 150 μL of PBS++.
Compound dilutions were accomplished by preparing 1:3 serial dilutions of compounds as follows. For each plate (4 compounds/plate) 600 μL were added to 4 Bio-Rad Titertubes in a Titertube rack. […] Using Falcon Flexiplates, 100 μL of Hepes/Saline buffer or human serum were added to rows B through G. A multi-channel pipetter set to 180 μL was used to with four tips spaced evenly the pipetter. Each set of four tubes was mixed 5 times and 180 μL of 2× compound was transferred to the first column of each compound dilution in Row B, leaving Row A empty. 180 μL were added to the other wells in Row A. Serial dilutions were performed down the plate by transferring 50 μL to the next dilution and mixing 5 times, changing tips each time after mixing.
A 20 μg/mL solution in Hepes/Saline buffer or human serum, of 21/6 antibody was the positive control and was set aside in a reagent trough to add to cell suspension plate.
The cell staining was accomplished by first harvesting the log-phase Jurkat™ cells by centrifugation in 50 mL tubes (1100 rpm for 5 minutes). The cells were resuspended in 50 mL PBS++, spun, and resuspend in 20 mL PBS++. The cells were stained by adding 20 μL of Calcein AM for 30 minutes RT. The volume was brought to 50 mL with Hepes/Saline buffer and the cells were counted, spun, and resuspend to 2×10^6 cells/mL in Hepes/Saline buffer or human serum.
The compounds were incubated using the following procedure. In a new flexiplate, 65 μL of stained cells were added to Rows B through H. Then 65 μL of 2× compounds were added to the appropriate rows following the plate setup and mixed three times. 65 μL of 2×-21/6 antibody were added to Row H and mixed 3×. Finally the plate was incubated at room temperature for 30 minutes.
Fibronectin adhesion was measured using a fluorescent plate reader at EX 485/EM 530 after the following work up procedure. After incubation, the cells were mixed three times and 100 μL were transfered to the Fibronectin coated plates and incubated at 37° C. for about 35 minutes. Each plate was washed, row by row, by gently pipetting 100 μL of RT. PBS++ down the sides of the wells and turning the plate 90 degrees to aspirate. This procedure was repeated for a total of 3 washes. Each well was filled with 100 μL after washing by pipetting down the side of the well.
An IC50 value was calculated for each compound, both in the presence of the human serum and in the absence of human serum.

Series [1] in a line: Cassette Dosing and Serum Analysis for Determination of Bioavailability. In kind it is in vivo, rat. The settings on record: average AUC 0→12 h, male Sprague Dawley rats, single oral cassette dose (6 compounds, total dose 10 mg/kg), plasma. As for the experimental part: The cassette included 5 test articles and a standard compound, for a total dose of 10 mg/kg. Each compound/test article was converted to the sodium salt with equimolar 1 N NaOH and dissolved in water at 2 mg/mL. The cassette was prepared by mixing equal volumes of each of the six solutions. The cassette dosing solution was mixed well and then the pH was adjusted to 7.5–9. The dosing solution was prepared the day before the study and stirred overnight at room temperature.
Male Sprague Dawley (SD) rats from Charles River Laboratories, 6–8 weeks old were used in this screen. Rats were quarantined for at least one day and had continuous access to food and water. On the night before the administration of the cassette, the rats were fasted for approximately 16 h.
Four SD rats were assigned in each cassette. A single dose of the dosing solution was administered orally to each rat. The dosing volume (5 mL/kg) and time were recorded and rats were fed 2 h after dosing.
Blood samples were collected via cardiac puncture at the following time points: 4 h, 8 h and 12 h. Immediately prior to blood collection, rats were anesthetized with CO2 gas within 10–20 seconds. After the 12-h samples were collected, the rats were euthanized via CO2 asphyxiation followed by cervical dislocation.
Blood samples were kept in heparinized microtainer tubes under sub-ambient temperature (4° C.) before they were processed. Blood samples were centrifuged (10000 rpm for 5 minutes) and plasma samples were removed and stored in a −20° C. freezer until analyzed for drug levels. Drug levels in the plasma were analyzed using the following protocol for direct plasma precipitation.
The in vivo plasma samples were prepared in a 1.5 mL 96-well plate, by adding, in order, 100 μL of the test plasma, 150 μL of methanol, followed by vortexing for 10–20 seconds. 150 μL of 0.05 ng/μL of an Internal Standard in acetonitrile were added and vortexed for 30 seconds.
The standard curve samples were prepared in a 1.5 mL 96-well plate, by adding, in order, 100 μL of control mouse plasma, followed by 150 μL of methanol and vortexing for 10–20 seconds. 150 μL of 0.05 ng/μL of an Internal Standard in acetonitrile were added and vortexed for 30 seconds. The samples were spiked with 0–200 ng (10 concentrations) of the compound of interest in 50% methanol to obtain a standard curve range of 0.5 ng/mL–2,000 ng/mL. Again, the sample was vortexed for 30 seconds.
The samples were then spun for 20–30 minutes at 3000 rpm in an Eppendorf microfuge before 80–90% of supernatant was transferred into a clean 96-well plate. The organic solvent was then evaporated until the samples were dry (under N2 at 40° C./30–60 min (Zymark Turbovap)).
The residue was then dissolved in […] mobile phase (50% CH3OH/0.1% TFA). LC/MS/MS was then run using a PE-Sciex API-3000 triple quadurpole mass spectrometer (SN0749707), Perkin-Elmer, Series200auto-sampler, and shimadzu 10A pump. Acquisition was done with PE-Sciex Analyst (v1.1) and data analysis and quantification were accomplished using PE-Sciex Analyst (v1.1). A 5–50 μL sample volume was injected onto a reverse phase ThermoHypersil DASH-18 column (Keystone 2.0×20 mm, 5 μm, PN: 8823025-701) using a mobile phase of 25% CH3OH, 0.1% TFA-100% CH3OH, 0.1% TFA. The run time was about 8 minutes at a flow rate of about 300 μL/minutes.
The Area Under the Curve (AUC) was calculated using the linear trapezoidal rule from t=0 to the last sampling time tx (see Handbook of Basic Pharmacokinetics, Wolfgang A. Ritschel and Gregory L. Kearns, 5th ed, 1999). AUC^0→tx=S((Cn+Cn+1)/2))·(tn+1−tn)[(μg/mL)h]

T1 sequence (P13612 34-1032): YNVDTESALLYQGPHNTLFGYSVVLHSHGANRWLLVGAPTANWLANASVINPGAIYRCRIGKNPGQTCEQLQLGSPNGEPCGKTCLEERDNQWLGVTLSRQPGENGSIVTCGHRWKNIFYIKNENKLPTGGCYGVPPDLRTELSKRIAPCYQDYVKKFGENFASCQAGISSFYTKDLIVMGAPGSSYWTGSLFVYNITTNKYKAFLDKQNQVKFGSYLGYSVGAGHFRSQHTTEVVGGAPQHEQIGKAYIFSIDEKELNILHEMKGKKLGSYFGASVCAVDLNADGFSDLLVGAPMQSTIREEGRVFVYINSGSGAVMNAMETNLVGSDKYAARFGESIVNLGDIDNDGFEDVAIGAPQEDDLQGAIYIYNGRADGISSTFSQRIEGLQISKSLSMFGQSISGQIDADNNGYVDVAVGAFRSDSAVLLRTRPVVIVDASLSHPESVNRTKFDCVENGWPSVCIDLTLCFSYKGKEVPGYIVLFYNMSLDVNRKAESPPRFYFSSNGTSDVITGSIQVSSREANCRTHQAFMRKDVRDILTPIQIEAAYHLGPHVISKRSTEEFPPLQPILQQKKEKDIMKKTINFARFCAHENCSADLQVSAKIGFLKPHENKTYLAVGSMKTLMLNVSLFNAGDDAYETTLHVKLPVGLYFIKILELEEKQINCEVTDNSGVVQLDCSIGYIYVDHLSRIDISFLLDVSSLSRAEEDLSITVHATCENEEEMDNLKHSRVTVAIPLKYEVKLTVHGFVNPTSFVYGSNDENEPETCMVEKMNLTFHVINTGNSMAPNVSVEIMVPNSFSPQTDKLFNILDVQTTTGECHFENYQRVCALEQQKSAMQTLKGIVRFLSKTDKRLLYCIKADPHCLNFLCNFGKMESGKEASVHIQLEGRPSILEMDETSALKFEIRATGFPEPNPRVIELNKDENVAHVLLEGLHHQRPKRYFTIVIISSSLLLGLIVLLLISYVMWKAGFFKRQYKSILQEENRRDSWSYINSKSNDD
T1 sequence (P05556 21-798): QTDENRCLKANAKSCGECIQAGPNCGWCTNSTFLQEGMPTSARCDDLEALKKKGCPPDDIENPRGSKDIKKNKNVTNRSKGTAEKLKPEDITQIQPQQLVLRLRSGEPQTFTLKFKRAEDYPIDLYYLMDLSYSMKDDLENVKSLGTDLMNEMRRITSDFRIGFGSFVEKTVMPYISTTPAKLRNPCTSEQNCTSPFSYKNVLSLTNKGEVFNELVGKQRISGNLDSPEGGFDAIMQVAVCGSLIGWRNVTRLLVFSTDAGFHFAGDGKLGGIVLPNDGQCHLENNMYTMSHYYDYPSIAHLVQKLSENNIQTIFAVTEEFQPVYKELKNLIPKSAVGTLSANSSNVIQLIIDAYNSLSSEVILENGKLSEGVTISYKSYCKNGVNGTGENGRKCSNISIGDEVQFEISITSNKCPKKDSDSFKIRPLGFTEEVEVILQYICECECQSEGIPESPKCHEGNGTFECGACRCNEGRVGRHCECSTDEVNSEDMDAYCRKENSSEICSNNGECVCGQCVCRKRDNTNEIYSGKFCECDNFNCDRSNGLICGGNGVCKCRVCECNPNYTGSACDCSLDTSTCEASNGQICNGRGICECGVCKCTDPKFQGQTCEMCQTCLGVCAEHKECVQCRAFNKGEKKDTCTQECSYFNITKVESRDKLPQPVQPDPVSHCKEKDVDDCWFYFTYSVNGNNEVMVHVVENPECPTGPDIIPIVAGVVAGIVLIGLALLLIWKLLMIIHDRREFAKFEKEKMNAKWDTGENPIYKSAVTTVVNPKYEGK

One may read the IC50 as the concentration that gives 50% inhibition. A higher IC50 goes with a need for much substance. On to `CCN(CC)c1ncc(N(CC)S(=O)(=O)c2ccc(Cl)cc2)c(N[C@@H](Cc2ccc(OC(=O)N3CCCC3)cc2)C(=O)O)n1` [Example 1, N-(2-[N′,N′-diethylamino]-5-[N″-(4-chlorophenylsulfonyl)-N″-ethylamino]pyrimidin-4-yl)-4′-(pyrrolidin-1-ylcarbonyloxy)-L-phenylalanine], for which the figures for the concentration for half-maximal inhibition (IC50) on α4β1 integrin (containing human serum) and at α4β1 integrin (without the human serum) were 409 nM and 17 nM, respectively. In addition, in series [1], the AUC is 14.798 (μg/mL)h.
For `CCN(CC)c1ncc(N(CC)S(=O)(=O)c2ccc(F)cc2)c(N[C@@H](Cc2ccc(OC(=O)N3CCCC3)cc2)C(=O)O)n1` [Example 2, N-(2-[N′,N′-diethylamino]-5-[N″-(4-fluorophenylsulfonyl)-N″-ethylamino]pyrimidin-4-yl)-4′-(pyrrolidin-1-ylcarbonyloxy)-L-phenylalanine], the results for the IC50 at α4β1 integrin (containing human serum) and against α4β1 integrin (without the human serum) were 604 nM and 1.59 nM, respectively. Moreover, in series [1], the AUC is on record as 15.971 (μg/mL)h.
As for `CCN(CC)c1ncc(N(C)S(=O)(=O)c2ccc(F)cc2)c(N[C@@H](Cc2ccc(OC(=O)N3CCCC3)cc2)C(=O)O)n1` [Example 3, N-(2-[N′,N′-diethylamino]-5-[N″-(4-fluorophenylsulfonyl)-N″-methylamino]pyrimidin-4-yl)-4′-(pyrrolidin-1-ylcarbonyloxy)-L-phenylalanine], the IC50 was 1730 nM against α4β1 integrin (containing human serum) and 6.51 nM on α4β1 integrin (without the human serum). Moreover, the AUC in series [1] was 22.271 (μg/mL)h.
Consider `CCN(CC)c1ncc(N(C)S(=O)(=O)c2ccc(Cl)cc2)c(N[C@@H](Cc2ccc(OC(=O)N3CCCC3)cc2)C(=O)O)n1` [Example 4, N-(2-[N′,N′-diethylamino]-5-[N″-(4-chlorophenylsulfonyl)-N″-methylamino]pyrimidin-4-yl)-4′-(pyrrolidin-1-ylcarbonyloxy)-L-phenylalanine], for which the IC50 was 2280 nM on α4β1 integrin (containing human serum) and 19 nM against α4β1 integrin (without the human serum). Besides, in series [1], the AUC is recorded as 13.829 (μg/mL)h.
As to `CCN(CC)c1ncc(N(C)S(=O)(=O)c2ccc(F)cc2)c(N[C@@H](Cc2ccc(OC(=O)N3CCCCC3)cc2)C(=O)O)n1` [Example 5, N-(2-[N′,N′-diethylamino]-5-[N″-(4-fluorophenylsulfonyl)-N″-methylamino]pyrimidin-4-yl)-4′-(piperidin-1-ylcarbonyloxy)-L-phenylalanine], the IC50 against α4β1 integrin (containing human serum) was 1570 nM; against α4β1 integrin (without the human serum) it was 6 nM. In addition, in series [1], the AUC was 2.1654 (μg/mL)h.
`CCN(CC)c1ncc(N(CC)S(=O)(=O)c2ccc(F)cc2)c(N[C@@H](Cc2ccc(OC(=O)N3CCCCC3)cc2)C(=O)O)n1` [Example 6, N-(2-[N′,N′-diethylamino]-5-[N″-(4-fluorophenylsulfonyl)-N″-ethylamino]pyrimidin-4-yl)-4′-(piperidin-1-ylcarbonyloxy)-L-phenylalanine]: the IC50 on α4β1 integrin (containing human serum) is 702 nM; at α4β1 integrin (without the human serum), 4.67 nM. Further, the AUC in series [1] was 0.5125 (μg/mL)h.
With `CCN(CC)c1ncc(N(CC)S(=O)(=O)c2ccc(F)cc2)c(N[C@@H](Cc2ccc(OC(=O)N3CCC3)cc2)C(=O)O)n1` [Example 7, N-(2-[N′,N′-diethylamino]-5-[N″-(4-fluorophenylsulfonyl)-N″-ethylamino]pyrimidin-4-yl)-4′-(azetidin-1-ylcarbonyloxy)-L-phenylalanine], the IC50 was 86.2 nM at α4β1 integrin (containing human serum) and 1.63 nM at α4β1 integrin (without the human serum). Besides, the AUC in series [1] is recorded as 0.8979 (μg/mL)h.
On to `CCN(CC)c1ncc(N(C)S(=O)(=O)c2ccc(F)cc2)c(N[C@@H](Cc2ccc(OC(=O)N3CCC3)cc2)C(=O)O)n1` [Example 8, N-(2-[N′,N′-diethylamino]-5-[N″-(4-fluorophenylsulfonyl)-N″-methylamino]pyrimidin-4-yl)-4′-(azetidin-1-ylcarbonyloxy)-L-phenylalanine], for which the IC50 is 225 nM at α4β1 integrin (containing human serum) and 1.66 nM on α4β1 integrin (without the human serum). For the same molecule, the AUC in series [1] is recorded as 2.4082 (μg/mL)h.
Take `CCN(CC)c1ncc(N(C)S(=O)(=O)c2ccc(Cl)cc2)c(N[C@@H](Cc2ccc(OC(=O)N3CCC3)cc2)C(=O)O)n1` [Example 9]: the IC50 at α4β1 integrin (containing human serum) was 207 nM; at α4β1 integrin (without the human serum), 3.24 nM. Besides, in series [1], the AUC is listed as 2.0774 (μg/mL)h.
On to `C#CCN(c1cnc(N(CC)CC)nc1N[C@@H](Cc1ccc(OC(=O)N2CCCC2)cc1)C(=O)O)S(=O)(=O)c1ccc(F)cc1` [Example 15, N-(2-[N′,N′-diethylamino]-5-[N″-(4-fluorophenylsulfonyl)-N″-propargylamino]pyrimidin-4-yl)-4′-(pyrrolidin-1-ylcarbonyloxy)-L-phenylalanine], for which the AUC in series [1] is reported as 90.317 (μg/mL)h.
In the case of `C#CCN(c1cnc(N(CC)CC)nc1N[C@@H](Cc1ccc(OC(=O)N2CCCC2)cc1)C(=O)O)S(=O)(=O)c1ccc(Cl)cc1` [Example 19, N-(2-[N′,N′-diethylamino]-5-[N″-(4-chlorophenylsulfonyl)-N″-propargylamino]pyrimidin-4-yl)-4′-(pyrrolidin-1-ylcarbonyloxy)-L-phenylalanine], the values for the IC50 against α4β1 integrin (containing human serum) and against α4β1 integrin (without the human serum) were 6280 nM and 6.93 nM, respectively.
